Assay results: US10448639B2, “Fungicidal pyrazoles” (FMC CORPORATION, priority 2009, dated 2019)

The compounds below were run on Rhizoctonia solani (assay: Test E: turf brown patch, preventive spray on creeping bent grass (Agrostis sp.) seedlings, disease rating). Conditions: 100 = 100% disease control, 0 = no disease control relative to controls.
Type: in vivo
From the text: A dash (-) indicates no test results.

Compound | Test E disease control rating
COCN(c1c(F)cc(F)cc1F)c1c(-c2ccc(F)cc2Cl)c(C)nn1C [compound 309] | 92%
Cc1nn(C)c(N(c2c(F)cc(F)cc2F)S(C)(=O)=O)c1-c1ccc(F)cc1Cl [compound 304] | 0%

These compounds were tested on Puccinia recondita f. sp. tritici (assay: Test I: wheat leaf rust, preventive spray on wheat seedlings, visual disease rating). Conditions: wheat leaf rust, preventive spray; 100 = 100% disease control, 0 = no control.

Compound | Test I rating (% disease control)
Cc1cc(Oc2c(-c3c(F)cc(F)cc3F)c(C)nn2C)ccc1[N+](=O)[O-] [compound 135] | 74%

Same assay, conditions: wheat leaf rust, preventive; 100 = 100% disease control, 0 = no control relative to controls

Compound | Test I rating (% disease control)
CCN(c1c(F)cc(OC)cc1F)c1c(-c2ccc(F)cc2Cl)c(C)nn1C [compound 158] | 99%
Cc1nn(C)c(Nc2cccc(F)c2F)c1-c1ccc(F)cc1F [compound 214] | 99%
COc1cc(F)c(-c2c(C)nn(C)c2Oc2cccc(C#N)c2)c(F)c1 [compound 223] | 100%
COc1cc(F)c(-c2c(C)nn(C)c2Oc2ccc(C)c(F)c2)c(F)c1 [compound 188] | 97%
COc1cc(Oc2c(-c3c(F)cc(F)cc3F)c(C)nn2C)ccc1[N+](=O)[O-] [compound 151] | 54%

Same assay, conditions: wheat leaf rust, sprayed the day before inoculation; 100 = 100% disease control, 0 = no disease control relative to controls

Compound | Test I disease control rating
COCN(c1c(F)cc(F)cc1F)c1c(-c2ccc(F)cc2Cl)c(C)nn1C [compound 309] | 0%
Cc1nn(C)c(N(c2c(F)cc(F)cc2F)S(C)(=O)=O)c1-c1ccc(F)cc1Cl [compound 304] | 0%

Each compound was assayed on Botrytis cinerea (assay: Test B: tomato Botrytis, preventive spray on tomato seedlings, visual disease rating). Conditions: tomato Botrytis, preventive spray; 100 = 100% disease control, 0 = no control.

Compound | Test B rating (% disease control)
Cc1cc(Oc2c(-c3c(F)cc(F)cc3F)c(C)nn2C)ccc1[N+](=O)[O-] [compound 135] | 0%

Same assay, conditions: tomato Botrytis; 100 = 100% disease control, 0 = no control relative to controls

Compound | Test B rating (% disease control)
CCN(c1c(F)cc(OC)cc1F)c1c(-c2ccc(F)cc2Cl)c(C)nn1C [compound 158] | 100%
Cc1nn(C)c(Nc2cccc(F)c2F)c1-c1ccc(F)cc1F [compound 214] | 98%
COc1cc(F)c(-c2c(C)nn(C)c2Oc2cccc(C#N)c2)c(F)c1 [compound 223] | 96%
COc1cc(F)c(-c2c(C)nn(C)c2Oc2ccc(C)c(F)c2)c(F)c1 [compound 188] | 87%
COc1cc(Oc2c(-c3c(F)cc(F)cc3F)c(C)nn2C)ccc1[N+](=O)[O-] [compound 151] | 99%

Same assay, conditions: tomato Botrytis; 100 = 100% disease control, 0 = no disease control relative to controls

Compound | Test B disease control rating
COCN(c1c(F)cc(F)cc1F)c1c(-c2ccc(F)cc2Cl)c(C)nn1C [compound 309] | 97%
Cc1nn(C)c(N(c2c(F)cc(F)cc2F)S(C)(=O)=O)c1-c1ccc(F)cc1Cl [compound 304] | 0%

The compounds below were run on Septoria tritici (assay: Test G: wheat leaf blotch, preventive spray on wheat seedlings, visual disease rating). Conditions: wheat leaf blotch, preventive spray; 100 = 100% disease control, 0 = no control.

Compound | Test G rating (% disease control)
Cc1cc(Oc2c(-c3c(F)cc(F)cc3F)c(C)nn2C)ccc1[N+](=O)[O-] [compound 135] | 97%

Same assay, conditions: wheat leaf blotch, sprayed the day before inoculation; 100 = 100% disease control, 0 = no disease control relative to controls

Compound | Test G disease control rating
COCN(c1c(F)cc(F)cc1F)c1c(-c2ccc(F)cc2Cl)c(C)nn1C [compound 309] | 100%
Cc1nn(C)c(N(c2c(F)cc(F)cc2F)S(C)(=O)=O)c1-c1ccc(F)cc1Cl [compound 304] | 16%

Same assay, conditions: wheat leaf blotch; 100 = 100% disease control, 0 = no control relative to controls

Compound | Test G rating (% disease control)
CCN(c1c(F)cc(OC)cc1F)c1c(-c2ccc(F)cc2Cl)c(C)nn1C [compound 158] | 99%
Cc1nn(C)c(Nc2cccc(F)c2F)c1-c1ccc(F)cc1F [compound 214] | 100%
COc1cc(F)c(-c2c(C)nn(C)c2Oc2cccc(C#N)c2)c(F)c1 [compound 223] | 100%
COc1cc(F)c(-c2c(C)nn(C)c2Oc2ccc(C)c(F)c2)c(F)c1 [compound 188] | 100%
COc1cc(Oc2c(-c3c(F)cc(F)cc3F)c(C)nn2C)ccc1[N+](=O)[O-] [compound 151] | 96%

The compounds below were run on Alternaria solani (assay: Test C: tomato early blight, preventive spray on tomato seedlings, visual disease rating). Conditions: tomato early blight, preventive spray; 100 = 100% disease control, 0 = no control.

Compound | Test C rating (% disease control)
Cc1cc(Oc2c(-c3c(F)cc(F)cc3F)c(C)nn2C)ccc1[N+](=O)[O-] [compound 135] | 0%

Same assay, conditions: tomato early blight; 100 = 100% disease control, 0 = no control relative to controls

Compound | Test C rating (% disease control)
CCN(c1c(F)cc(OC)cc1F)c1c(-c2ccc(F)cc2Cl)c(C)nn1C [compound 158] | 0%
Cc1nn(C)c(Nc2cccc(F)c2F)c1-c1ccc(F)cc1F [compound 214] | 51%
COc1cc(F)c(-c2c(C)nn(C)c2Oc2cccc(C#N)c2)c(F)c1 [compound 223] | 9%
COc1cc(F)c(-c2c(C)nn(C)c2Oc2ccc(C)c(F)c2)c(F)c1 [compound 188] | 0%
COc1cc(Oc2c(-c3c(F)cc(F)cc3F)c(C)nn2C)ccc1[N+](=O)[O-] [compound 151] | 9%

Same assay, conditions: tomato early blight; 100 = 100% disease control, 0 = no disease control relative to controls

Compound | Test C disease control rating
COCN(c1c(F)cc(F)cc1F)c1c(-c2ccc(F)cc2Cl)c(C)nn1C [compound 309] | 61%
Cc1nn(C)c(N(c2c(F)cc(F)cc2F)S(C)(=O)=O)c1-c1ccc(F)cc1Cl [compound 304] | 0%

The compounds below were run on Erysiphe graminis f sp. tritici (assay: Test J: wheat powdery mildew, preventive spray on wheat seedlings, visual disease rating). Conditions: wheat powdery mildew, preventive spray; 100 = 100% disease control, 0 = no control.

Compound | Test J rating (% disease control)
Cc1cc(Oc2c(-c3c(F)cc(F)cc3F)c(C)nn2C)ccc1[N+](=O)[O-] [compound 135] | 95%

Same assay, conditions: wheat powdery mildew, sprayed the day before inoculation; 100 = 100% disease control, 0 = no disease control relative to controls

Compound | Test J disease control rating
COCN(c1c(F)cc(F)cc1F)c1c(-c2ccc(F)cc2Cl)c(C)nn1C [compound 309] | 99%
Cc1nn(C)c(N(c2c(F)cc(F)cc2F)S(C)(=O)=O)c1-c1ccc(F)cc1Cl [compound 304] | 0%

Same assay, conditions: wheat powdery mildew; 100 = 100% disease control, 0 = no control relative to controls

Compound | Test J rating (% disease control)
CCN(c1c(F)cc(OC)cc1F)c1c(-c2ccc(F)cc2Cl)c(C)nn1C [compound 158] | 98%
Cc1nn(C)c(Nc2cccc(F)c2F)c1-c1ccc(F)cc1F [compound 214] | 100%
COc1cc(F)c(-c2c(C)nn(C)c2Oc2cccc(C#N)c2)c(F)c1 [compound 223] | 100%
COc1cc(F)c(-c2c(C)nn(C)c2Oc2ccc(C)c(F)c2)c(F)c1 [compound 188] | 97%
COc1cc(Oc2c(-c3c(F)cc(F)cc3F)c(C)nn2C)ccc1[N+](=O)[O-] [compound 151] | 64%

Each compound was assayed on Septoria nodorum (assay: Test F: Septoria glume blotch, preventive spray on wheat seedlings, visual disease rating). Conditions: Septoria glume blotch on wheat, preventive spray; 100 = 100% disease control, 0 = no control.

Compound | Test F rating (% disease control)
Cc1cc(Oc2c(-c3c(F)cc(F)cc3F)c(C)nn2C)ccc1[N+](=O)[O-] [compound 135] | 0%

Same assay, conditions: Septoria glume blotch on wheat; 100 = 100% disease control, 0 = no disease control relative to controls

Compound | Test F disease control rating
COCN(c1c(F)cc(F)cc1F)c1c(-c2ccc(F)cc2Cl)c(C)nn1C [compound 309] | 60%
Cc1nn(C)c(N(c2c(F)cc(F)cc2F)S(C)(=O)=O)c1-c1ccc(F)cc1Cl [compound 304] | 0%

Same assay, conditions: Septoria glume blotch; 100 = 100% disease control, 0 = no control relative to controls

Compound | Test F rating (% disease control)
CCN(c1c(F)cc(OC)cc1F)c1c(-c2ccc(F)cc2Cl)c(C)nn1C [compound 158] | 0%
Cc1nn(C)c(Nc2cccc(F)c2F)c1-c1ccc(F)cc1F [compound 214] | 0%
COc1cc(F)c(-c2c(C)nn(C)c2Oc2cccc(C#N)c2)c(F)c1 [compound 223] | 99%
COc1cc(F)c(-c2c(C)nn(C)c2Oc2ccc(C)c(F)c2)c(F)c1 [compound 188] | 0%
COc1cc(Oc2c(-c3c(F)cc(F)cc3F)c(C)nn2C)ccc1[N+](=O)[O-] [compound 151] | 0%

These compounds were tested on Puccinia recondita f. sp. tritici (assay: Test H: wheat leaf rust, curative spray on inoculated wheat seedlings, visual disease rating). Conditions: wheat leaf rust, curative spray; 100 = 100% disease control, 0 = no control.

Compound | Test H rating (% disease control)
Cc1cc(Oc2c(-c3c(F)cc(F)cc3F)c(C)nn2C)ccc1[N+](=O)[O-] [compound 135] | 16%

Same assay, conditions: wheat leaf rust, curative; 100 = 100% disease control, 0 = no control relative to controls

Compound | Test H rating (% disease control)
CCN(c1c(F)cc(OC)cc1F)c1c(-c2ccc(F)cc2Cl)c(C)nn1C [compound 158] | 18%
Cc1nn(C)c(Nc2cccc(F)c2F)c1-c1ccc(F)cc1F [compound 214] | 9%
COc1cc(F)c(-c2c(C)nn(C)c2Oc2cccc(C#N)c2)c(F)c1 [compound 223] | 0%
COc1cc(F)c(-c2c(C)nn(C)c2Oc2ccc(C)c(F)c2)c(F)c1 [compound 188] | 0%
COc1cc(Oc2c(-c3c(F)cc(F)cc3F)c(C)nn2C)ccc1[N+](=O)[O-] [compound 151] | 0%
